Patent US11844823B2, “Beta-hairpin peptidomimetic with elastase inhibitory activity and aerosol dosage forms thereof” (POLYPHOR AG, priority 2016, dated 2023)
Non-standard residues stand in square brackets, D forms with d. Residues, ends and D or L forms follow the SMILES beside them. Gly(octyl) = CCCCCCCC[C@H](N)C(=O)O

Assays:
neutrophil elastase = test: Previous intratracheal study in the LPS/fMLP rat model; assay type: in vivo; settings: intratracheal doses of 0.03 to 3 mg/kg
Description: The doses of fMLP and the time points were chosen based upon published data (see e.g. S. Yasui, A. Nagai, K. Aoshiba et al., Eur. Respir. J., 1995, 8, 1293; T. Yang, J. Zhang, K. Sun et al., Inflamm. Res. 2012, 61, 563; R. Corteling, D. Wyss, A. Trifilieff, BMC Pharmacology, 2002, 2, 1) and experience at Envigo CRS Limited. The dose selection of the drug was based on a previous intratracheal study at Envigo CRS Limited.

rats = test: GLP-compliant 28-day inhalation toxicity study in rats; assay type: in vivo, rat
Method: In a GLP-compliant 28-day inhalation toxicity study in rats, conducted by Charles River Laboratories Preclinical Services, Tranent, Edinburgh, UK, the formulation described in Example 2 and dilutions thereof as well as the vehicle were administered using the Pari eFlow® XL 30 nebulizer device (Pari Pharma, Starnberg, Germany) for 100 min per day for 28 days, followed by a 2-week recovery period. […] Ten animals were used for the main toxicity study, and 5 additional animals for the recovery phase. Parameters assessed included clinical signs, body weights, food consumption, ophthalmic examination, clinical pathology, gross necropsy findings, organ weights and histopathologic examinations. […] This was associated with reduction in food consumption in treated animals. There was a good recovery in body weight gain during the recovery period between day 28 and 42.
These changes resolved during the recovery period and were considered a non-adverse, adaptive response to mild irritation. […] This slight increase in macrophage accumulation was considered a nonspecific response to the inhalation of high concentrations of material exceeding the clearance capacity of the lung.

healthy subjects = test: First-in-man study in healthy subjects, safety and tolerability of orally inhaled single doses; assay type: in vivo, human
Description: In this randomised, double-blind, placebo-controlled, parallel-group (per dose level) dose-escalation study of inhaled single doses in 48 healthy subjects in six dose groups of eight subjects each, conducted by Inamed GmbH, Gauting, Germany, the controlled oral inhalation of the formulation described in Example 1 and dilutions thereof as well as the placebo (0.5% [w/w] aqueous sodium chloride solution adjusted to pH 5.5 with 1 M HCl pharmaceutical grade) occurred via the Pari eFlow® XL 30 nebulizer device (Pari Pharma GmbH, Starnberg, Germany). The dose levels and corresponding concentrations of cyclo(-OctG-Glu-Thr-Ala-Ser-Ile-Pro-Pro-Gln-Lys-Tyr-^DPro-Pro-) (active compound) are summarized in Table 10.
(§1) The volume of placebo nebulizer solution corresponded to that of the active compound at a particular dose level. The duration of inhalation depended on the total volume of nebulizer solution and ranged between several minutes and roughly one hour. Adverse events were tabulated and summarized according to the current version of Medical Dictionary for Regulatory Activities.

[1] = tested on: patients with cystic fibrosis; test: Phase-1b single ascending dose study in patients with cystic fibrosis, safety and tolerability; assay type: in vivo, human
Description: In this randomised, double-blind, placebo-controlled, parallel-group (per dose level) dose-escalation study, the safety and tolerability of single ascending doses (SAD) of acetate salt of cyclo(-OctG-Glu-Thr-Ala-Ser-Ile-Pro-Pro-Gln-Lys-Tyr-^DPro-Pro-) administered by inhalation in patients with cystic fibrosis (CF) was investigated. Additionally, the pharmacokinetics of the drug following a single ascending dose in plasma and sputum as well as its pharmacodynamic effect on neutrophil elastase activity in sputum were evaluated.
In this study, conducted by Inamed GmbH, Gauting, Germany, 24 subjects with cystic fibrosis, who fulfilled all the inclusion criteria and in whom no exclusion criterion was present, were included and received randomised treatment. They were grouped into 3 dose groups of 8 subjects each. 6 subjects received the formulation described in Example 1 and dilutions thereof and 2 subjects received placebo (0.5% [w/w] aqueous sodium chloride solution adjusted to pH 5.5 with 1 M HCl pharmaceutical grade). The oral inhalation of the above formulation as well as the placebo occurred via the Pari eFlow® XL 30 nebulizer device (Pari Pharma GmbH, Starnberg, Germany). The dose levels and corresponding concentrations of cyclo(-OctG-Glu-Thr-Ala-Ser-Ile-Pro-Pro-Gln-Lys-Tyr-^DPro-Pro-) (active compound) are summarized in Table 14.
as §1, with “was estimated to be between 7” for “depended on the total volume of nebulizer solution”, “20 min.” for “ranged between several minutes and roughly one hour.”

Structure (SMILES): CCCCCCCC[C@@H]1NC(=O)[C@@H]2CCCN2C(=O)[C@H]2CCCN2C(=O)[C@H](Cc2ccc(O)cc2)NC(=O)[C@H](CCCCN)NC(=O)[C@H](CCC(N)=O)NC(=O)[C@@H]2CCCN2C(=O)[C@@H]2CCCN2C(=O)[C@H]([C@@H](C)CC)NC(=O)[C@H](CO)NC(=O)[C@H](C)NC(=O)[C@H]([C@@H](C)O)NC(=O)[C@H](CCC(=O)O)NC1=O [cyclo(-OctG-Glu-Thr-Ala-Ser-Ile-Pro-Pro-Gln-Lys-Tyr-^DPro-Pro-)] (cyclo([Gly(octyl)]ETASIPPQKY[dP]P))
- efficacy in LPS/fMLP animal model (neutrophil elastase): efficacious
- clinical signs or ophthalmic findings (rats; rat, 11, 53 and 119 mg/kg/day): no clinical signs or ophthalmic findings
- histopathology of the larynx (rats; rat, in vivo): focal minimal squamous metaplasia without cellular atypia of dysplasia
- organ weights or gross findings (rats; rat, in vivo): no treatment-related changes
- clinical pathology findings considered toxicologically relevant (rats; rat, haematology, coagulation, clinical chemistry, urinalysis): no findings
- death, serious and other significant adverse events (healthy subjects; healthy subjects, single inhaled doses 20-960 mg): No death, no serious adverse events (AE) and no other significant AE
- subjects judging overall tolerability 'very good' or 'good' (healthy subjects; human, in vivo): 97.9%
- total number of AEs (healthy subjects; human, in vivo): 27
- treatment-emergent adverse events (TEAEs) (healthy subjects; human, in vivo): 24
- death, serious and other significant adverse events ([1]; CF patients, single inhaled doses 80, 160, 320 mg): No death, no serious adverse events (AE) and no other significant AE
- TEAEs rated as severe ([1]; human, in vivo): None
- causal relationship of TEAEs to active compound ([1]; human, in vivo): not related
- total number of AEs (all TEAEs) ([1]; human, in vivo): 6
